Structures can show the parent of a compound that is named as a salt. Where two headings read alike, the source gives them in different places.
Test system: behaviors of compound-treated mice
Experiment: Neuropharmacological Assay (SmartCube)
Type: in vivo
Settings: for minimal effective dose: Mus musculus, ip, 0.25 h, dose having 50% or more total activity in SmartCube, read-out: MED (minimal effective dose)
How it was run: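 Behavioral signatures were captured automatically by video, and each drug class received a probability for the best of three i.p. doses given 15 min pre-test (vehicle: Pharmasolve/PEG/propylene glycol). Potency is given as MED, the lowest mpk dose (typically 0.3–30) reaching 50% or more total activity.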

[1] = i.p. 15 min before behavioral test, most efficacious dose(s) of 3 doses
[2] = SmartCube, i.p. 15 min before test, most efficacious dose(s)

SMILES	minimal effective dose (i.p.) [mg/kg]	AD: ADHD (probability that activity matches class) [1]	AG: analgesic (probability that activity matches class) [1]	AX: anxiolytic (probability that activity matches class) [1]	CE: cognitive enhancer (probability that activity matches class) [1]	DP: anti-depressant (probability that activity matches class) [1]	MS: mood stabilizer (probability that activity matches class) [1]	PS: anti-psychotic (probability that activity matches class) [1]	SD: sedative hypnotic (probability that activity matches class) [1]	UN: uncharacterized CNS activity (probability that activity matches class) [1]	minimal effective dose [mg/kg]	AD: ADHD (probability that activity matches class) [2]	AG: analgesic (probability that activity matches class) [2]	AX: anxiolytic (probability that activity matches class) [2]	CE: cognitive enhancer (probability that activity matches class) [2]	DP: anti-depressant (probability that activity matches class) [2]	MS: mood stabilizer (probability that activity matches class) [2]	PS: anti-psychotic (probability that activity matches class) [2]	SD: sedative hypnotic (probability that activity matches class) [2]	UN: uncharacterized CNS activity (probability that activity matches class) [2]
CCNC[C@@H]1OCCc2c(-c3ccncc3)cccc21 (single isomer, unassigned) [Compound 66, hydrochloride salt]	10 to 30	+ (LOQ ≤ + <5%)	+ (LOQ ≤ + <5%)	++ (5% ≤ ++ <25%)	+ (LOQ ≤ + <5%)	++ (5% ≤ ++ <25%)	+ (LOQ ≤ + <5%)	+ (LOQ ≤ + <5%)	+ (LOQ ≤ + <5%)	+ (LOQ ≤ + <5%)										
NC[C@H]1OCCc2c(-c3ncc[nH]3)cccc21 [Compound 109, (S)-(5-(1H-Imidazol-2-yl)isochroman-1-yl)methanamine hydrochloride salt]	> 30	+ (LOQ ≤ + <5%)	+ (LOQ ≤ + <5%)	++ (5% ≤ ++ <25%)	+ (LOQ ≤ + <5%)	++ (5% ≤ ++ <25%)	+ (LOQ ≤ + <5%)	+ (LOQ ≤ + <5%)	+ (LOQ ≤ + <5%)	+ (LOQ ≤ + <5%)										
CNC[C@H]1OCCc2c(-c3cnoc3)cccc21 (single isomer, unassigned) [Compound 85, hydrochloride salt]	≤ 3	++ (5% ≤ ++ <25%)	+ (LOQ ≤ + <5%)	++ (5% ≤ ++ <25%)	+ (LOQ ≤ + <5%)	++++ (50% ≤ ++++)	+ (LOQ ≤ + <5%)	+ (LOQ ≤ + <5%)	+ (LOQ ≤ + <5%)	++ (5% ≤ ++ <25%)										
CNCC1OCCc2c(-c3ccnnc3)cccc21 (stereo not shown) [Compound 54, N-Methyl-1-(5-(pyridazin-4-yl)isochroman-1-yl)methanamine hydrochloride salt]	3 to 10	+ (LOQ ≤ + <5%)	+ (LOQ ≤ + <5%)	+ (LOQ ≤ + <5%)	++ (5% ≤ ++ <25%)	++++ (50% ≤ ++++)	+ (LOQ ≤ + <5%)	+ (LOQ ≤ + <5%)	+ (LOQ ≤ + <5%)	+ (LOQ ≤ + <5%)										
NC[C@H]1OCCc2c(-c3ccno3)cccc21 (single isomer, unassigned) [Compound 93, hydrochloride salt]	10 to 30	+ (LOQ ≤ + <5%)	+ (LOQ ≤ + <5%)	+ (LOQ ≤ + <5%)	+ (LOQ ≤ + <5%)	+ (LOQ ≤ + <5%)	+ (LOQ ≤ + <5%)	+ (LOQ ≤ + <5%)	+ (LOQ ≤ + <5%)	+ (LOQ ≤ + <5%)										
Cl.NC[C@@H]1OCCc2c(-c3ncco3)cccc21 [Compound 106, (R)-(5-(Oxazol-2-yl)isochroman-1-yl)methanamine hydrochloride salt]	10 to 30	+ (LOQ ≤ + <5%)	+ (LOQ ≤ + <5%)	+++ (25% ≤ +++ <50%)	++ (5% ≤ ++ <25%)	++ (5% ≤ ++ <25%)	+ (LOQ ≤ + <5%)	+ (LOQ ≤ + <5%)	+ (LOQ ≤ + <5%)	+ (LOQ ≤ + <5%)										
NC[C@@H]1OCCc2c(-c3cncnc3)cccc21 (single isomer, unassigned) [Compound 27, hydrochloride salt]	> 30	+ (LOQ ≤ + <5%)	+ (LOQ ≤ + <5%)	++ (5% ≤ ++ <25%)	+ (LOQ ≤ + <5%)	++ (5% ≤ ++ <25%)	+ (LOQ ≤ + <5%)	++ (5% ≤ ++ <25%)	+ (LOQ ≤ + <5%)	+ (LOQ ≤ + <5%)										
CNC[C@@H]1OCCc2c(-c3ccncc3)cccc21 [Compound 17, (R)—N-Methyl(5-(pyridin-4-yl)isochroman-1-yl)methanamine dihydrochloride salt]	≤ 3	++ (5% ≤ ++ <25%)	+ (LOQ ≤ + <5%)	+ (LOQ ≤ + <5%)	+ (LOQ ≤ + <5%)	++++ (50% ≤ ++++)	+ (LOQ ≤ + <5%)	+ (LOQ ≤ + <5%)	++ (5% ≤ ++ <25%)	++ (5% ≤ ++ <25%)										
CNC[C@H]1OCc2c(-c3ccncc3)cccc21 [Compound 40, (S)—N-Methyl-1-(4-(pyridin-4-yl)-1,3-dihydroisobenzofuran-1-yl)methanamine hydrochloride salt]	≤ 3	++ (5% ≤ ++ <25%)	++++ (50% ≤ ++++)	++ (5% ≤ ++ <25%)	++ (5% ≤ ++ <25%)	++++ (50% ≤ ++++)	+ (LOQ ≤ + <5%)	+ (LOQ ≤ + <5%)	+ (LOQ ≤ + <5%)	+ (LOQ ≤ + <5%)										
CNC[C@H]1OCCc2c(-c3ccno3)cccc21 [Compound 95, (S)-1-(5-(Isoxazol-5-yl)isochroman-1-yl)-N-methylmethanamine]	≤ 3	++++ (50% ≤ ++++)	+ (LOQ ≤ + <5%)	++ (5% ≤ ++ <25%)	+ (LOQ ≤ + <5%)	++++ (50% ≤ ++++)	+ (LOQ ≤ + <5%)	+ (LOQ ≤ + <5%)	++ (5% ≤ ++ <25%)	++ (5% ≤ ++ <25%)										
CNC[C@@H]1OCCc2c1cccc2-n1cccn1 [Compound 186, (R)-1-(5-(1H-pyrazol-1-yl)isochroman-1-yl)-N-methylmethanamine]											10 to 30	+ (LOQ ≤ + <5%)	+ (LOQ ≤ + <5%)	++ (5% ≤ ++ <25%)	+ (LOQ ≤ + <5%)	+ (LOQ ≤ + <5%)	+ (LOQ ≤ + <5%)	+ (LOQ ≤ + <5%)	+ (LOQ ≤ + <5%)	+ (LOQ ≤ + <5%)
CNC[C@H]1OCCc2c(-c3cn[nH]c3)cccc21 [Compound 119, (S)-1-(5-(1H-pyrazol-4-yl)isochroman-1-yl)-N-methylmethanamine hydrochloride salt]	≤ 3	++ (5% ≤ ++ <25%)	+ (LOQ ≤ + <5%)	++ (5% ≤ ++ <25%)	+ (LOQ ≤ + <5%)	++++ (50% ≤ ++++)	+ (LOQ ≤ + <5%)	+ (LOQ ≤ + <5%)	++ (5% ≤ ++ <25%)	+ (LOQ ≤ + <5%)										
NC[C@H]1OCCc2c(-c3cccnc3)cccc21 [Compound 16, (S)-(5-(Pyridin-3-yl)isochroman-1-yl)methanamine hydrochloride]	≤ 3	+ (LOQ ≤ + <5%)	+ (LOQ ≤ + <5%)	++ (5% ≤ ++ <25%)	++ (5% ≤ ++ <25%)	++++ (50% ≤ ++++)	+ (LOQ ≤ + <5%)	+ (LOQ ≤ + <5%)	+ (LOQ ≤ + <5%)	+ (LOQ ≤ + <5%)										

— patent US10780074B2, “Compounds and uses thereof” (Sunovion Pharmaceuticals Inc., priority 2017, dated 2020)
